{"source": "paper PMC13210772", "about": "“Dual FLT3/MAPK14 Proteolysis-Targeting Chimera (PROTAC) Induces Potent Acute Myeloid Leukemia Cell Death” (Pharmaceuticals, 2026)", "assay_in_all_cases": "NanoBRET CELLinib128", "format_in_all_cases": "binding", "key": {"[1]": {"biological_target": "T1, MAPK9 (Homo sapiens, UniProt P45984)", "T1 construct": "Full-length kinase ORF (Promega, Madison, WI, USA) cloned in frame with a NanoLuc-vector was transfected into HEK293T cells; host or cells: HEK293T", "T1 sequence (P45984 whole entry)": "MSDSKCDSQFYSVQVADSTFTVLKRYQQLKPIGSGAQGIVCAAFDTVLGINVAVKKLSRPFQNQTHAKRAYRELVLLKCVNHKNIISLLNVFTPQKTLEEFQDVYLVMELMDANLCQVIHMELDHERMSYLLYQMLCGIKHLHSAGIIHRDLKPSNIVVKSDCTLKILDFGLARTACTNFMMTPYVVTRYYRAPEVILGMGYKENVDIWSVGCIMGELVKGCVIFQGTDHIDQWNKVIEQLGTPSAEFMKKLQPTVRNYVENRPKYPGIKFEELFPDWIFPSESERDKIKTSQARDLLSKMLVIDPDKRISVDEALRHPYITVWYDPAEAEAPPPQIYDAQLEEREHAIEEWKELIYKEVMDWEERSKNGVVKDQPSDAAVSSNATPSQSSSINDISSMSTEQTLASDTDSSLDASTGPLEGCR", "conditions": "1 µM; 100% no effect, 0% complete tracer displacement", "protocol": "(§1) To get an impression about the binding strength of the PROTAC MA191 and the reference inhibitor MA68 to other kinases besides FLT3-ITD the binding on a kinase panel of further 128 representative protein kinases at 1 μM concentration was tested using the NanoBRET^TM cellular target engagement assay (CELLinib128 assay, CELLinib GmbH, Frankfurt, Germany). […] In none of the 128 kinases MA191 was able to displace the tracer (inhibitor) used by more than 50%, Table S1, Supplementary Information).\n(§2) The CELLinib128 assay was performed by CELLinib GmbH, Frankfurt (Germany) as described previously. In brief: Full-length kinase ORF (Promega, Madison, WI, USA) cloned in frame with a NanoLuc-vector was transfected into HEK293T cells in Opti-MEM without phenol red (Life Technologies, Carlsbad, CA, USA) at a density of 2 × 10^5 cells/mL using FuGENE HD (Promega, E2312) and proteins were allowed to express for 20 h. For CDKs, where indicated below, an excess of an activator without an NLuc-fusion was cotransfected. […] The system was allowed to equilibrate at 37 °C for 2 h and 5% CO2 prior to BRET measurements. For PKCs, a chemical activator PMA was added in a final concentration of 1 µM was added together with test compounds and tracers (Promega, V1171). To measure BRET, NanoBRET^TM NanoGlo substrate + extracellular NanoLuc inhibitor (Promega, N2160) were added as per the manufacturer’s protocol, and filtered luminescence was measured (450 nm BP filter (donor) and 610 nm LP filter (acceptor)). For the 1-shot test compounds, data were normalized to the tracer control and the background control or control compound plateau and an average and SD were calculated. […] For the control compounds competitive displacement data were normalized to the tracer Ctrl and the background Ctrl and then plotted and fitted using GraphPad Prism 10 software using a normalized 3-parameter curve fit with the following equation: Y = 100/(1 + 10^X−LogIC50)."}, "[2]": {"biological_target": "T2, NUAK1 (Homo sapiens, UniProt O60285)", "T2 construct": "Full-length kinase ORF (Promega, Madison, WI, USA) cloned in frame with a NanoLuc-vector was transfected into HEK293T cells; host or cells: HEK293T", "T2 sequence (O60285 whole entry)": "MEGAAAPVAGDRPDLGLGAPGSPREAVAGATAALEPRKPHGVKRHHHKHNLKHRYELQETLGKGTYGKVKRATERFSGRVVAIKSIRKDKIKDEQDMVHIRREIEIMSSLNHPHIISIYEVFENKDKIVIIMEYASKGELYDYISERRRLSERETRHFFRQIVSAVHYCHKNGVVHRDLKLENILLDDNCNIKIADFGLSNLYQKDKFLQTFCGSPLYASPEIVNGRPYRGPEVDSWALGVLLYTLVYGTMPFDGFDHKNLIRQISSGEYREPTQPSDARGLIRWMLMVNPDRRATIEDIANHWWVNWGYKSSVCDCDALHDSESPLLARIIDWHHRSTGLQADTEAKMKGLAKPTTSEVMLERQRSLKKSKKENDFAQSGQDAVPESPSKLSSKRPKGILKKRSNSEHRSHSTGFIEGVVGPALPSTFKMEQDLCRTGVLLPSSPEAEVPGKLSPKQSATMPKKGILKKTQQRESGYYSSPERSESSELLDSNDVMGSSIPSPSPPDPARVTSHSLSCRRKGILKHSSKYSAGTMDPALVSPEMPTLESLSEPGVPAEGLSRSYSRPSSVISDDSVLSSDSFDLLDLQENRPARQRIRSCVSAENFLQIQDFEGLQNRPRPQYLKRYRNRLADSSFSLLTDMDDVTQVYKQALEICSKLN", "conditions": "1 µM; 100% no effect, 0% complete tracer displacement", "protocol": "as §1, §2"}, "[3]": {"biological_target": "T3, PRKAA1 (Homo sapiens, UniProt Q13131)", "T3 construct": "Full-length kinase ORF (Promega, Madison, WI, USA) cloned in frame with a NanoLuc-vector was transfected into HEK293T cells; host or cells: HEK293T", "T3 sequence (Q13131 whole entry)": "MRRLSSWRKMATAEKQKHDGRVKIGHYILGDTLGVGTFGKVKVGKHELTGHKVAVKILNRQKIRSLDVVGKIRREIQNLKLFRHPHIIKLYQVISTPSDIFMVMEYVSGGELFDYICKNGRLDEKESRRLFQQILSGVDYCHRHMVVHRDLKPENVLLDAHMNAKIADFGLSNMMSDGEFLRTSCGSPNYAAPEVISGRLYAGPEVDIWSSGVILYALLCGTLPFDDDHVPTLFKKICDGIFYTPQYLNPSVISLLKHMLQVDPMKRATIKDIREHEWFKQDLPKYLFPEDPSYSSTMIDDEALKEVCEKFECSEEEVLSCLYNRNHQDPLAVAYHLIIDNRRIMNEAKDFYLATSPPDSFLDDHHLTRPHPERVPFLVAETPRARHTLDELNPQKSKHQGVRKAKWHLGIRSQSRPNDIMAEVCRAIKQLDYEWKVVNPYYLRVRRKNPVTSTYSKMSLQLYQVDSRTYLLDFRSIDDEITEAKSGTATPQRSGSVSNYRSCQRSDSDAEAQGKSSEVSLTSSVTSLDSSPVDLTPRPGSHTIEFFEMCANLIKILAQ", "conditions": "100% no effect, 0% complete tracer displacement, read-out: Tracer bound", "protocol": "as §1, §2"}, "[4]": {"biological_target": "T4, PRKACB (Homo sapiens, UniProt P22694)", "T4 construct": "Full-length kinase ORF (Promega, Madison, WI, USA) cloned in frame with a NanoLuc-vector was transfected into HEK293T cells; host or cells: HEK293T", "conditions": "100% no effect, 0% complete tracer displacement, read-out: Tracer bound", "protocol": "as §1, §2"}, "[5]": {"biological_target": "T5, RIOK2 (Homo sapiens, UniProt Q9BVS4)", "T5 construct": "Full-length kinase ORF (Promega, Madison, WI, USA) cloned in frame with a NanoLuc-vector was transfected into HEK293T cells; host or cells: HEK293T", "T5 sequence (Q9BVS4 whole entry)": "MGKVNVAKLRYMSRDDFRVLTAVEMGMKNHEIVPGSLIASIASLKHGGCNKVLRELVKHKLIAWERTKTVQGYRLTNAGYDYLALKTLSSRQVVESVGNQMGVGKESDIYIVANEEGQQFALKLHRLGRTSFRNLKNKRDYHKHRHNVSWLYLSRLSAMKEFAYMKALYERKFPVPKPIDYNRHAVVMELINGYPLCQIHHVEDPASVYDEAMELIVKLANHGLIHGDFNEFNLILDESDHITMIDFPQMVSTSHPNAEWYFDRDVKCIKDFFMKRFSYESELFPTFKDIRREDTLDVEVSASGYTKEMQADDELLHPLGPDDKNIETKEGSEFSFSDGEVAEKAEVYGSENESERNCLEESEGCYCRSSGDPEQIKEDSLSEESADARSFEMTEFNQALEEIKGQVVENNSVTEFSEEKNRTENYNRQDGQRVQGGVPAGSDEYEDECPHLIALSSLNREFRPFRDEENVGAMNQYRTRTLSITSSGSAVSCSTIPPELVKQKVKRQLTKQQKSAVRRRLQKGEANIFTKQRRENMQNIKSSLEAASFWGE", "conditions": "100% no effect, 0% complete tracer displacement, read-out: Tracer bound", "protocol": "as §1, §2"}, "[6]": {"biological_target": "T6, RPS6KA1 (Homo sapiens, UniProt Q15418)", "T6 construct": "Full-length kinase ORF (Promega, Madison, WI, USA) cloned in frame with a NanoLuc-vector was transfected into HEK293T cells; host or cells: HEK293T", "conditions": "100% no effect, 0% complete tracer displacement, read-out: Tracer bound", "protocol": "as §1, §2"}, "[7]": {"biological_target": "T7, RPS6KA3 (Homo sapiens, UniProt P51812)", "T7 construct": "Full-length kinase ORF (Promega, Madison, WI, USA) cloned in frame with a NanoLuc-vector was transfected into HEK293T cells; host or cells: HEK293T", "T7 sequence (P51812 whole entry)": "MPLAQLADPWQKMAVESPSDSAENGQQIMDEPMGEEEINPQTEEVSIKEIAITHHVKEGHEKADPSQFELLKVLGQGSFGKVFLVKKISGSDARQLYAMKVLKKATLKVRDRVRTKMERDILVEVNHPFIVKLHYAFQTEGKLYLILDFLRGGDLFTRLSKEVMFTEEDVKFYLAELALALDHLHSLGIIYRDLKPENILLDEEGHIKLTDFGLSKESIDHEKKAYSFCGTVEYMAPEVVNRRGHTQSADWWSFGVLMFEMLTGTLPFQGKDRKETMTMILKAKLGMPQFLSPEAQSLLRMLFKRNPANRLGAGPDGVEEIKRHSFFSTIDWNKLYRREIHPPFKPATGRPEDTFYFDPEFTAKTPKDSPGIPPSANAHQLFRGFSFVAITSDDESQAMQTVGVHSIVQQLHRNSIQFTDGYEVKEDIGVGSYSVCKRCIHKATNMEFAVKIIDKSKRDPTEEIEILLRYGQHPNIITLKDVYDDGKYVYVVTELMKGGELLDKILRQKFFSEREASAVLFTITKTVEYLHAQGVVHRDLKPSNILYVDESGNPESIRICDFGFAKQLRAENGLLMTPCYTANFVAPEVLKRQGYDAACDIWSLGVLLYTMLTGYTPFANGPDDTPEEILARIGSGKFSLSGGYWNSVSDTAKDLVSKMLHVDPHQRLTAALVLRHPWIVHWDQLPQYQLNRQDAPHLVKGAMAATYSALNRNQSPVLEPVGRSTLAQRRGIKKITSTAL", "conditions": "100% no effect, 0% complete tracer displacement, read-out: Tracer bound", "protocol": "as §1, §2"}, "[8]": {"biological_target": "T8, SRMS (Homo sapiens, UniProt Q9H3Y6)", "T8 construct": "Full-length kinase ORF (Promega, Madison, WI, USA) cloned in frame with a NanoLuc-vector was transfected into HEK293T cells; host or cells: HEK293T", "T8 sequence (Q9H3Y6 whole entry)": "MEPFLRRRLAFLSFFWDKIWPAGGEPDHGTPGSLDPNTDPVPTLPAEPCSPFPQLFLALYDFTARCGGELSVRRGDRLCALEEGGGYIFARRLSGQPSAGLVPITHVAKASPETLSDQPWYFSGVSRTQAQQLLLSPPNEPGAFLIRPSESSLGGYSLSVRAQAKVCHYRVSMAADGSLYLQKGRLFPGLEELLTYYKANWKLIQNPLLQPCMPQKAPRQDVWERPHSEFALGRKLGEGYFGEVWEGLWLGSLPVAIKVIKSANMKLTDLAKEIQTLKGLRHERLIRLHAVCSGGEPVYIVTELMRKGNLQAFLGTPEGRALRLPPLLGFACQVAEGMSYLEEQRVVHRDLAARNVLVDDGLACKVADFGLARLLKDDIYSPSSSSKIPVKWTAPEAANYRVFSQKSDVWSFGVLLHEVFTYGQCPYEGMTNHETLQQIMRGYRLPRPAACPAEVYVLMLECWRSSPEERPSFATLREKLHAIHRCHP", "conditions": "100% no effect, 0% complete tracer displacement, read-out: Tracer bound", "protocol": "as §1, §2"}, "[9]": {"biological_target": "T9, STK33 (Homo sapiens, UniProt Q9BYT3)", "T9 construct": "Full-length kinase ORF (Promega, Madison, WI, USA) cloned in frame with a NanoLuc-vector was transfected into HEK293T cells; host or cells: HEK293T", "T9 sequence (Q9BYT3 whole entry)": "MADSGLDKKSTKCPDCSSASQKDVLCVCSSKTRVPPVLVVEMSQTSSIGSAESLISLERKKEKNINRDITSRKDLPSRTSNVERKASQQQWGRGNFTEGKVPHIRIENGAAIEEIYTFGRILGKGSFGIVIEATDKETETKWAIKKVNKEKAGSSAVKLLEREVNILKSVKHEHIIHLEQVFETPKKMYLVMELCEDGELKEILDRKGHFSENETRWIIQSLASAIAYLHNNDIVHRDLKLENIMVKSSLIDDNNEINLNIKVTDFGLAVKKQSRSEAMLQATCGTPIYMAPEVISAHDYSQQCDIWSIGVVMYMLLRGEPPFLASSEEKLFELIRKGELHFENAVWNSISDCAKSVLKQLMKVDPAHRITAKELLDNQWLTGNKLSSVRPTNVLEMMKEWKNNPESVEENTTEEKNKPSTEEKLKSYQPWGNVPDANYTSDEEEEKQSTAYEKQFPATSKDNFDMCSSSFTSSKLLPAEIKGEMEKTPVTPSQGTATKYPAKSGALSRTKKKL", "conditions": "100% no effect, 0% complete tracer displacement, read-out: Tracer bound", "protocol": "as §1, §2"}, "[10]": {"biological_target": "T10, STK38L (Homo sapiens, UniProt Q9Y2H1)", "T10 construct": "Full-length kinase ORF (Promega, Madison, WI, USA) cloned in frame with a NanoLuc-vector was transfected into HEK293T cells; host or cells: HEK293T", "conditions": "100% no effect, 0% complete tracer displacement, read-out: Tracer bound", "protocol": "as §1, §2"}, "[11]": {"biological_target": "T11, TBK1 (Homo sapiens, UniProt Q9UHD2)", "T11 construct": "Full-length kinase ORF (Promega, Madison, WI, USA) cloned in frame with a NanoLuc-vector was transfected into HEK293T cells; host or cells: HEK293T", "T11 sequence (Q9UHD2 whole entry)": "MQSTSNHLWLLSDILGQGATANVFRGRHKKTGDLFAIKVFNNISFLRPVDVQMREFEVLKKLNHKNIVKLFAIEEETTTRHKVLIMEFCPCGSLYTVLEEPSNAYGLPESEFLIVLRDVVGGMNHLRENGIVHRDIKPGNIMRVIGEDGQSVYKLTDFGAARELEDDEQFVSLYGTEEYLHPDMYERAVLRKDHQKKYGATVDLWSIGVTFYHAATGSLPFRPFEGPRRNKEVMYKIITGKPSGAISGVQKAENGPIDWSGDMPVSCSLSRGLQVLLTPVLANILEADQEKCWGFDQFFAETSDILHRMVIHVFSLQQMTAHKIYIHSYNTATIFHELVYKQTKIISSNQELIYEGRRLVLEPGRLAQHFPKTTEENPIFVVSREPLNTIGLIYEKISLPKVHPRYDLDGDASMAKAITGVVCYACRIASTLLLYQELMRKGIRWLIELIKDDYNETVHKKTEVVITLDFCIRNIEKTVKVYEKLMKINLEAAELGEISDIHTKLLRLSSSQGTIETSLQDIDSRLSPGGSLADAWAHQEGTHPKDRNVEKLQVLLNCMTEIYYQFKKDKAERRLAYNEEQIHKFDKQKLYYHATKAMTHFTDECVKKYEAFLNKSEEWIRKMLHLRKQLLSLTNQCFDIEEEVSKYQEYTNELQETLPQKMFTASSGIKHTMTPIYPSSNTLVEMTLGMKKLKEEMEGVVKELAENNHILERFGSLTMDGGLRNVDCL", "conditions": "100% no effect, 0% complete tracer displacement, read-out: Tracer bound", "protocol": "as §1, §2"}, "[12]": {"biological_target": "T12, TNK1 (Homo sapiens, UniProt Q13470)", "T12 construct": "Full-length kinase ORF (Promega, Madison, WI, USA) cloned in frame with a NanoLuc-vector; host or cells: HEK293T", "conditions": "100% no effect, 0% complete tracer displacement, read-out: Tracer bound", "protocol": "as §1, §2"}, "[13]": {"biological_target": "T13, TNNI3K (Homo sapiens, UniProt Q59H18)", "T13 construct": "Full-length kinase ORF (Promega, Madison, WI, USA) cloned in frame with a NanoLuc-vector; host or cells: HEK293T", "conditions": "100% no effect, 0% complete tracer displacement, read-out: Tracer bound", "protocol": "as §1, §2"}, "[14]": {"biological_target": "T14, TRKA (Homo sapiens, UniProt P04629)", "T14 construct": "Full-length kinase ORF (Promega, Madison, WI, USA) cloned in frame with a NanoLuc-vector; host or cells: HEK293T", "conditions": "100% no effect, 0% complete tracer displacement, read-out: Tracer bound", "protocol": "as §1, §2"}, "[15]": {"biological_target": "T15, ULK2 (Homo sapiens, UniProt Q8IYT8)", "T15 construct": "Full-length kinase ORF (Promega, Madison, WI, USA) cloned in frame with a NanoLuc-vector; host or cells: HEK293T", "conditions": "100% no effect, 0% complete tracer displacement, read-out: Tracer bound", "protocol": "as §1, §2"}}, "data": [{"smiles": "Cc1ncsc1-c1ccc([C@H](C)NC(=O)[C@@H]2C[C@@H](O)CN2C(=O)[C@@H](NC(=O)[C@H]2CC[C@H](C(=O)N3CCN(CCNC(=O)c4cc(Oc5ccc(NC(=O)Nc6cc(C(C)(C)C)on6)cc5)ccn4)CC3)CC2)C(C)(C)C)cc1", "note": "[MA191, 4-(4-(3-(5-(tert-Butyl)isoxazol-3-yl)ureido)phenoxy)-N-(2-(4-(trans-4-(((S)-1-((2S,4R)-4-hydroxy-2-(((S)-1-(4-(4-methylthiazol-5-yl)phenyl)ethyl)carbamoyl)pyrrolidin-1-yl)-3,3-dimethyl-1-oxobutan-2-yl)carbamoyl)cyclohexanecarbonyl)piperazin-1-yl)ethyl)picolinamide]", "values": [{"measurement": "Tracer bound", "setting": "[1]", "value": 101.6, "unit": "%"}, {"measurement": "Tracer bound", "setting": "[2]", "value": 120.0, "unit": "%"}, {"measurement": "remaining activity at 1 µM", "setting": "[3]", "value": 110, "unit": "%"}, {"measurement": "remaining activity at 1 µM", "setting": "[4]", "value": 106, "unit": "%"}, {"measurement": "remaining activity at 1 µM", "setting": "[5]", "value": 115, "unit": "%"}, {"measurement": "remaining activity at 1 µM", "setting": "[6]", "value": 110, "unit": "%"}, {"measurement": "remaining activity at 1 µM", "setting": "[7]", "value": 120, "unit": "%"}, {"measurement": "remaining activity at 1 µM", "setting": "[8]", "value": 94.4, "unit": "%"}, {"measurement": "remaining activity at 1 µM", "setting": "[9]", "value": 99, "unit": "%"}, {"measurement": "remaining activity at 1 µM", "setting": "[10]", "value": 90, "unit": "%"}, {"measurement": "remaining activity at 1 µM", "setting": "[11]", "value": 108, "unit": "%"}, {"measurement": "remaining activity at 1 µM", "setting": "[12]", "value": 120, "unit": "%"}, {"measurement": "remaining activity at 1 µM", "setting": "[13]", "value": 83.2, "unit": "%"}, {"measurement": "remaining activity at 1 µM", "setting": "[14]", "value": 103, "unit": "%"}, {"measurement": "remaining activity at 1 µM", "setting": "[15]", "value": 98.6, "unit": "%"}]}]}
